This is an account of results in ChEMBL document CHEMBL1156839, “From anti-fouling to biofilm inhibition: new cytotoxic secondary metabolites from two Indonesian Agelas sponges” (Bioorg Med Chem, 2010).

The test system of data set [1] is Staphylococcus epidermidis. The experiment in a line: Growth inhibition of Staphylococcus epidermidis. The format is functional, organism-based.
The test system of data set [2] is L5178Y. The experiment in a line: Cytotoxicity against mouse L5178Y cells after 72 hrs by MTT assay. The format is functional, cell-based.
Data set [3] has as its system Staphylococcus epidermidis. The experiment in a line: Antibacterial activity against Staphylococcus epidermidis. The format is functional.
The subject of data set [4] is Staphylococcus epidermidis. The experiment in a line: Antibacterial activity against Staphylococcus epidermidis assessed as inhibition of biofilm formation after 18 hrs by adherent assay. The format is functional, organism-based.
The test system of data set [5] is L5178Y. The experiment in a line: Growth inhibition of mouse L5178Y cells at […] after 72 hrs by MTT assay relative to untreated control. Format: functional. Details: dose or concentration left out as unconfirmed. Conditions: values are per cent of control.
Data set [6] relates to Amphibalanus improvisus. The experiment in a line: Antifouling activity against Balanus improvisus […] larvae assessed as inhibition of cyprid larval settlement at 0.1 uM to 100 uM. Format: functional, organism-based.
The subject of data set [7] is Amphibalanus improvisus. The experiment in a line: Toxicity against Balanus improvisus […] larvae assessed as cyprid larval death at 0.1 uM to 100 uM. Conditions: in vivo. The format is ADME, organism-based.
Setting [8] is: Staphylococcus epidermidis, read-out: MIC.

Values after ≈ are worked out from the molar mass of the structure shown. Counter-ions that a name gives are not always drawn. Active and inactive are the calls of the source. The rule behind the calls is not given here. A value given as a limit tells only on which side of the number the result lay.

In the case of `O=C1NCC(O)n2cc(Br)cc21` (configuration not stated), the “growth inhibition (GI)” value in data set [1] was “inactive”. Moreover, in the data set with L5178Y [2], the IC50 was > 43.2 µM. Also, the MIC in data set [3] (setting [8]) is > 87 µM. In addition, the inhibition result in data set [4] is “inactive”. Further, in the data set with L5178Y [5], the growth, % of control stood at 78.5%.
For the molecule `C=C1CC[C@@H]2C(C)(C)CCC[C@@]2(C)[C@@H]1CC/C(C)=C/C[n+]1cn(C)c2nc[nH]/c(=N\O)c21.[Cl-]`, in data set [1], the “growth inhibition (GI)” value was “inactive”. The same molecule yielded an IC50 with L5178Y [2] of 12.5 µM. In addition, the MIC in data set [3] (setting [8]) was > 45 µM. Also, in data set [4], the inhibition entry is “Active”. For the same molecule, the inhibition entry in the data set with Amphibalanus improvisus [6] is “Dose-dependent effect”. In addition, the growth, % of control in the data set on L5178Y [5] was found to be 4.2%. The Activity entry in the data set with Amphibalanus improvisus [7] was “Toxic”.
`Cn1c(C(=O)O)cc(Br)c1Br`: in data set [1], the “growth inhibition (GI)” value was “inactive”. Also, the MIC in data set [3] (setting [8]) was > 71 µM. Also, the inhibition result in data set [4] is “inactive”. For the same molecule, the growth, % of control with L5178Y [5] is 87.8%.
Regarding `COC(=O)c1cc(Br)c(Br)n1C`, the “growth inhibition (GI)” value in data set [1] was “inactive”. Further, in data set [3] (setting [8]), the MIC is > 67 µM. For the same molecule, the inhibition entry in data set [4] was “inactive”. Moreover, the growth, % of control in the data set with L5178Y [5] amounted to 83.4%.
`Cn1c(C(=O)NCCCC(=O)O)cc(Br)c1Br`: the “growth inhibition (GI)” value in data set [1] is “inactive”. Further, the MIC in data set [3] (setting [8]) is > 54 µM. The inhibition result in data set [4] was “inactive”. Moreover, in the data set on L5178Y [5], the growth, % of control was found to be 108%.
Consider `NC1=N[C@@]23CCCN2C(=O)c2cc(Br)c(Br)n2[C@H]3N1`, for which the “growth inhibition (GI)” value in data set [1] is “inactive”. For the same molecule, the inhibition result in data set [4] was “inactive”.
In the case of `CN(C)CCc1ccc(OCCCNC(=O)c2cc(Br)c[nH]2)c(Br)c1` [AGELANESIN A], the “growth inhibition (GI)” value in data set [1] is “inactive”. The molecule also returned an IC50 in the data set with L5178Y [2] of 9.55 µM. In data set [3] (setting [8]), the MIC was > 42 µM. The inhibition entry in data set [4] was “inactive”. Also, the growth, % of control in the data set on L5178Y [5] was -0.5%.
For the molecule `CN(C)CCc1ccc(OCCCNC(=O)c2cc(Br)c[nH]2)c(I)c1` [AGELANESIN B], the “growth inhibition (GI)” value in data set [1] is “inactive”. Also, in the data set with L5178Y [2], inhibition was half-maximal at 9.25 µM (IC50). Further, the MIC in data set [3] (setting [8]) was > 38 µM. For the same molecule, the inhibition entry in data set [4] was “inactive”. In the data set with L5178Y [5], the growth, % of control worked out at 2.3%.
Take `CN(C)CCc1ccc(OCCCNC(=O)c2cc(Br)c(Br)[nH]2)c(Br)c1` [AGELANESIN C]: the “growth inhibition (GI)” value in data set [1] is “inactive”. This molecule also came in with an IC50 with L5178Y [2] of 16.8 µM. The MIC in data set [3] (setting [8]) is > 36 µM. Also, in data set [4], the inhibition entry is “inactive”. Besides, the growth, % of control in the data set on L5178Y [5] was found to be 0.8%.
On to `CN(C)CCc1ccc(OCCCNC(=O)c2cc(Br)c(Br)[nH]2)c(I)c1` [AGELANESIN D], for which the “growth inhibition (GI)” value in data set [1] is “inactive”. This molecule displayed an IC50 with L5178Y [2] of 13.1 µM. In addition, the MIC in data set [3] (setting [8]) is > 33 µM. Also, the inhibition result in data set [4] is “inactive”. Further, the growth, % of control in the data set with L5178Y [5] is -2.3%.
Turning to `Cn1c(C(=O)N2CCC(O)=C3N=C(N)N=C32)cc(Br)c1Br` [AGELANIN A], the “growth inhibition (GI)” value in data set [1] is “inactive”. In addition, in data set [3] (setting [8]), the MIC was > 48 µM. Further, in data set [4], the inhibition entry is “inactive”. Also, in the data set on L5178Y [5], the growth, % of control is 98.9%.
With `CC(=O)C(O)(CCCNC(=O)c1cc(Br)c(Br)n1C)CC(=O)O` (configuration not stated) [AGELANIN B], the “growth inhibition (GI)” value in data set [1] is “inactive”. The MIC in data set [3] (setting [8]) is > 44 µM. For the same molecule, in data set [4], the inhibition result is “inactive”. In addition, the growth, % of control with L5178Y [5] worked out at 92.8%.
Regarding `CC1=CCC[C@@H](C)[C@]1(C)CC/C(C)=C/CC/C(C)=C/CS(=O)(=O)CCNC(=N)N` [AGELASIDINE C], the “growth inhibition (GI)” value in data set [1] was “inactive”. The MIC in data set [3] (setting [8]) was 5.9 µM (≈ 2.5 µg/mL). In addition, the inhibition result in data set [4] is “inactive”. The growth, % of control with L5178Y [5] stood at 37.4%.
For the molecule `C=C1CC[C@@H]2C(C)(C)CCC[C@@]2(C)[C@@H]1CC/C(C)=C/Cn1c[n+](C)c2ncnc(N)c21.[Cl-]` [AGELASINE D], in data set [1], the “growth inhibition (GI)” value was “inactive”. This molecule also gave an IC50 with L5178Y [2] of 4.03 µM. Also, in data set [3] (setting [8]), the MIC was < 0.0877 µM. Moreover, the inhibition result in data set [4] is “inactive”. For the same molecule, in the data set with Amphibalanus improvisus [6], the inhibition result was “Dose-dependent effect”. Also, the growth, % of control in the data set on L5178Y [5] was 1.9%. Besides, in the data set on Amphibalanus improvisus [7], the Activity result was “Toxic”.
For `NC1=N[C@@]23CCCN2C(=O)c2cc(Br)c(Br)n2[C@]3(O)N1` [DIBROMOHYDROXYPHAKELLIN HYDROCHLORIDE], the “growth inhibition (GI)” value in data set [1] was “inactive”. The MIC in data set [3] (setting [8]) is > 45 µM. Further, the inhibition entry in data set [4] was “inactive”. For the same molecule, in the data set with L5178Y [5], the growth, % of control is 113%.
With `NC1=N[C@@]23CCCN2C(=O)c2cc(Br)c(Br)n2[C@H]3N1` [DIBROMPHAKELLIN HYDROCHLORIDE], the MIC in data set [3] (setting [8]) is > 47 µM.
As to `NC1=N[C@@]23CCCN2C(=O)c2cc(Br)c(Br)n2[C@H]3N1` [DIBROMPHAKELLIN], in data set [3], the MIC was >51 µM.
In the case of `Cn1c(C(=O)NCCCC2(NCCS(=O)(=O)O)NC(=N)NC2=O)cc(Br)c1Br` (configuration not stated) [MAURITAMIDE B], the “growth inhibition (GI)” value in data set [1] is “inactive”. Moreover, the MIC in data set [3] (setting [8]) was > 37 µM. Besides, in data set [4], the inhibition entry was “inactive”. In addition, the growth, % of control in the data set on L5178Y [5] was found to be 92.5%.
As to `CCN1C(=N)NC(=O)C1(CCCNC(=O)c1cc(Br)c(Br)n1C)NCCS(=O)(=O)O` (configuration not stated) [MAURITAMIDE C], the “growth inhibition (GI)” value in data set [1] was “inactive”. The MIC in data set [3] (setting [8]) was > 35 µM. In data set [4], the inhibition result was “inactive”. In addition, the growth, % of control in the data set on L5178Y [5] is 98.6%.
`Cn1c(C(=O)NCCS(=O)(=O)O)cc(Br)c1Br` [MAURITAMIDE D]: the “growth inhibition (GI)” value in data set [1] was “inactive”. In addition, the MIC in data set [3] (setting [8]) was > 52 µM. Further, the inhibition result in data set [4] is “inactive”. Besides, in the data set with L5178Y [5], the growth, % of control amounted to 118%.
Regarding `CN1C(=O)NC(CCCNC(=O)c2cc(Br)c(Br)n2C)C1=O` (configuration not stated) [MIDPACAMIDE], the “growth inhibition (GI)” value in data set [1] was “inactive”. Besides, in data set [3] (setting [8]), the MIC is > 46 µM. In addition, the inhibition entry in data set [4] is “inactive”. Further, the growth, % of control in the data set on L5178Y [5] came out at 46.7%.
